{
  "source": "patent US20200011856A1",
  "about": "“Method for Determining the Effectiveness of Treatment for the Prevention of Heartworm Disease” (priority 2017, published 2020)",
  "key": {"Dirofilaria immitis": {"tested_on": "Dirofilaria immitis", "assay": "D. immitis L3 infection of NSG mice (FR3 Missouri strain or strain not stated), treatment, recovery and count of worms at necropsy", "assay_type": "in vivo", "details": "for % Rec (percent of the original 50 Di recovered): 1 mg/kg"}, "[1]": {"tested_on": "Dirofilaria immitis (Merial worms, UC strain)", "assay": "D. immitis L3 infection of NSG mice with Merial worms / UC strain, treatment, recovery and count of worms", "assay_type": "in vivo", "details": "for % Rec, Mean / Mean % Rec: group mean; for Mean Survival / Survival, Mean: in vivo"}, "[2]": {"details": "NSG mice, 50 Di L3 Merial worms, 1 mg/kg on Days 1, 15, and 30, recovery Days 41 to 43"}, "[3]": {"details": "NSG mice, 50 Di L3 UC strain, High Dose 2 mg/kg on Days 1, 15, and 30, recovery Days 41 and 42"}, "[4]": {"details": "NSG mice, 50 Di L3 UC strain, Normal Dose 1 mg/kg on Days 1, 15, and 30, recovery Days 41 and 42"}},
  "note": "Several values for one entry are separate records, joined by “and”; a condition that tells them apart may be missing. Identical values can stand only once.",
  "data": [
    {"smiles": "CC(C)C[C@H]1C(=O)O[C@H](C)C(=O)N(C)[C@@H](CC(C)(C)F)C(=O)O[C@H](Cc2ccc(C3CCOCC3)cc2)C(=O)N(C)[C@@H](CC(C)C)C(=O)O[C@H](C)C(=O)N(C)[C@@H](CC(C)(C)F)C(=O)O[C@H](Cc2ccc(C3CCOCC3)cc2)C(=O)N1C", "note": "[compound 8800]", "values": [
      {"measurement": "% Red", "setting": "Dirofilaria immitis; 8800 5 mg/kg Days 1, 15, 30, 50 Di L3 per NSG mouse, Table 14, vs Control", "result": 100, "unit": "%"},
      {"measurement": "% Rec, Mean", "setting": "Dirofilaria immitis; 8800 5 mg/kg Days 1, 15, 30, 50 Di L3 per NSG mouse, recovery Days 41 to 42, Table 14, group mean", "result": 0, "unit": "%"},
      {"measurement": "% Rec", "setting": "Dirofilaria immitis; 8800 5 mg/kg Days 1, 15, 30, 50 Di L3 per NSG mouse, recovery Days 41 to 42, Table 14, individual mice", "result": 0, "unit": "%"},
      {"measurement": "% Red", "setting": "Dirofilaria immitis; NSG mice, 50 Di L3, 2x (1 mg/kg) at Days 1 and 30, recovery Days 41 to 43", "result": 38, "unit": "%"},
      {"measurement": "% Red", "setting": "Dirofilaria immitis; NSG mice, 50 Di L3 Day 0, 1 mg/kg EMO or 8800 on Days 30 and 60, recovery Days 83 and 84", "result": 43, "unit": "%"},
      {"measurement": "% Red (percent reduction in percent of Di recovered compared to control)", "setting": "Dirofilaria immitis; NSG mice, 50 Di L3 Day 0, 1 mg/kg on Day 30, recovery Days 41 to 43", "result": 23, "unit": "%"},
      {"measurement": "% Red", "setting": "Dirofilaria immitis; Table 9, NSG mice, 50 Di L3, 1 mg/kg on Days 1, 15, and 30, recovery Days 41 to 43", "result": 73, "unit": "%"},
      {"measurement": "Mean % Rec", "setting": "Dirofilaria immitis; Table 9, group mean, NSG mice, 50 Di L3, 1 mg/kg on Days 1, 15, and 30, recovery Days 41 to 43", "result": 9, "unit": "%"},
      {"measurement": "% Rec", "setting": "Dirofilaria immitis; Table 9, individual mouse, NSG mice, 50 Di L3, 1 mg/kg on Days 1, 15, and 30, recovery Days 41 to 43", "result": "8% (3×) and 10% and 28% and 16% and 0%"},
      {"measurement": "% Red", "setting": "Dirofilaria immitis; Table 11, NSG mice, 50 Di L3, 0.3 mg/kg on Days 1, 15, and 30, recovery Days 41 to 42", "result": 0, "unit": "%"},
      {"measurement": "% Red", "setting": "Dirofilaria immitis; Table 11, NSG mice, 50 Di L3, 1 mg/kg on Days 1, 15, and 30, recovery Days 41 to 42", "result": 71, "unit": "%"},
      {"measurement": "Mean % Rec", "setting": "Dirofilaria immitis; Table 11, group mean, NSG mice, 50 Di L3, 0.3 mg/kg on Days 1, 15, and 30, recovery Days 41 to 42", "result": 26, "unit": "%"},
      {"measurement": "Mean % Rec", "setting": "Dirofilaria immitis; Table 11, group mean, NSG mice, 50 Di L3, 1 mg/kg on Days 1, 15, and 30, recovery Days 41 to 42", "result": 7, "unit": "%"},
      {"measurement": "% Rec", "setting": "Dirofilaria immitis; Table 11, individual mouse, NSG mice, 50 Di L3, 0.3 mg/kg on Days 1, 15, and 30, recovery Days 41 to 42", "result": "16% (2×) and 36% (3×) and 14%"},
      {"measurement": "% Rec", "setting": "Dirofilaria immitis; Table 11, individual mouse, NSG mice, 50 Di L3, 1 mg/kg on Days 1, 15, and 30, recovery Days 41 to 42", "result": "4% (2×) and 2% and 16% and 8% and 6%"},
      {"measurement": "Mean % Rec", "setting": "Dirofilaria immitis; group mean, NSG mice, 50 Di L3, 2x (1 mg/kg) at Days 1 and 30, recovery Days 41 to 43", "result": 21, "unit": "%"},
      {"measurement": "Mean % Rec", "setting": "Dirofilaria immitis; group mean, NSG mice, 50 Di L3 Day 0, 1 mg/kg EMO or 8800 on Days 30 and 60, recovery Days 83 and 84", "result": 8, "unit": "%"},
      {"measurement": "Mean % Rec", "setting": "Dirofilaria immitis; group mean, NSG mice, 50 Di L3 Day 0, 1 mg/kg on Day 30, recovery Days 41 to 43", "result": 31, "unit": "%"},
      {"measurement": "Survival", "setting": "Dirofilaria immitis; in vivo, 5 mg/kg", "result": 0},
      {"measurement": "Survival, Mean", "setting": "Dirofilaria immitis; in vivo, 5 mg/kg", "result": 0},
      {"measurement": "% Rec", "setting": "Dirofilaria immitis; individual mouse, NSG mice, 50 Di L3, 2x (1 mg/kg) at Days 1 and 30, recovery Days 41 to 43", "result": "22% and 16% and 12% and 26% and 20% and 32%"},
      {"measurement": "% Rec (percent of the original 50 Di recovered)", "setting": "Dirofilaria immitis; individual mouse, NSG mice, 50 Di L3 Day 0, 1 mg/kg EMO or 8800 on Days 30 and 60, recovery Days 83 and 84", "result": "14% and 4% (2×) and 10% and 12% and 6%"},
      {"measurement": "% Rec (percent of the original 50 Di recovered)", "setting": "Dirofilaria immitis; individual mouse, NSG mice, 50 Di L3 Day 0, 1 mg/kg on Day 30, recovery Days 41 to 43", "result": "24% (3×) and 36% and 28% and 52%"},
      {"measurement": "% Rec, Mean", "setting": "[1]; 8800 1 mg/kg Days 1, 15, 30, 50 Di L3 (UC Strain) per NSG mouse, recovery Days 41 to 43", "result": 10, "unit": "%"},
      {"measurement": "% Rec", "setting": "[1]; 8800 1 mg/kg Days 1, 15, 30, 50 Di L3 (UC Strain) per NSG mouse, recovery Days 41 to 43, individual mice, 1 mg/kg", "result": "10% (2×) and 14% and 16% and 4% and 6% and 12%"},
      {"measurement": "% Red", "setting": "[1]; 8800 1 mg/kg Days 1, 15, 30, 50 Di L3 (UC Strain) per NSG mouse, vs Control", "result": 73, "unit": "%"},
      {"measurement": "% Rec, Mean", "setting": "[1]; 8800 2 mg/kg Days 1, 15, 30, 50 Di L3 (UC Strain) per NSG mouse, recovery Days 41 to 43", "result": 2, "unit": "%"},
      {"measurement": "% Rec", "setting": "[1]; 8800 2 mg/kg Days 1, 15, 30, 50 Di L3 (UC Strain) per NSG mouse, recovery Days 41 to 43, individual mice, 2 mg/kg", "result": "2% (3×) and 0% (2×) and 6% and 4%"},
      {"measurement": "% Red", "setting": "[1]; 8800 2 mg/kg Days 1, 15, 30, 50 Di L3 (UC Strain) per NSG mouse, vs Control", "result": 94, "unit": "%"},
      {"measurement": "% Red", "setting": "[1]; [2]", "result": 65, "unit": "%"},
      {"measurement": "% Red", "setting": "[1]; [3]", "result": 94, "unit": "%"},
      {"measurement": "% Red", "setting": "[1]; [4]", "result": 81, "unit": "%"},
      {"measurement": "Mean % Rec", "setting": "[1]; [2]", "result": 12, "unit": "%"},
      {"measurement": "Mean % Rec", "setting": "[1]; [3]", "result": 2, "unit": "%"},
      {"measurement": "Mean % Rec", "setting": "[1]; [4]", "result": 7, "unit": "%"},
      {"measurement": "Mean Survival", "setting": "[1]; 1 mg/kg", "result": "6 and 4"},
      {"measurement": "Survival, Mean", "setting": "[1]; 1 mg/kg", "result": 5},
      {"measurement": "Mean Survival", "setting": "[1]; 2 mg/kg", "result": 1},
      {"measurement": "Survival, Mean", "setting": "[1]; 2 mg/kg", "result": 1},
      {"measurement": "% Rec", "setting": "[1]; individual mouse, NSG mice, 50 Di L3 Merial worms, 1 mg/kg on Days 1, 15, and 30, recovery Days 41 to 43, 1 mg/kg", "result": "0% (2×) and 12% (3×) and 8% and 32% and 16%"},
      {"measurement": "% Rec", "setting": "[1]; individual mouse, NSG mice, 50 Di L3 UC strain, High Dose 2 mg/kg on Days 1, 15, and 30, recovery Days 41 and 42, 2 mg/kg", "result": "2% (3×) and 0% (3×) and 8%"},
      {"measurement": "% Rec", "setting": "[1]; individual mouse, NSG mice, 50 Di L3 UC strain, Normal Dose 1 mg/kg on Days 1, 15, and 30, recovery Days 41 and 42, 1 mg/kg", "result": "6% (2×) and 4% and 2% and 8% and 10% and 14%"}
    ]}
  ]
}
